Assay results as given in US10112935B2, “Indazolyl thiadiazolamines and related compounds for inhibition of Rho-associated protein kinase and the treatment of disease” (Lycera Corporation, priority 2015, dated 2018).

Legend:
ROCK [1] = details: porcine, IL-1 beta-induced; cited from earlier work
ROCK [2] = details: rat stroke model; cited from earlier work
[3] = molecular target: GST-tagged human ROCK1 catalytic domain 1-477 (Homo sapiens (Human), UniProt Q13464); assay: Inhibition of Rho-associated protein kinase isoform 1 (LANCE Ultra ULight-CREBtide FRET kinase assay); format: biochemical; details: 30 μM was the highest concentration analyzed
Chain of GST-tagged human ROCK1 catalytic domain 1-477 (Q13464 1-477): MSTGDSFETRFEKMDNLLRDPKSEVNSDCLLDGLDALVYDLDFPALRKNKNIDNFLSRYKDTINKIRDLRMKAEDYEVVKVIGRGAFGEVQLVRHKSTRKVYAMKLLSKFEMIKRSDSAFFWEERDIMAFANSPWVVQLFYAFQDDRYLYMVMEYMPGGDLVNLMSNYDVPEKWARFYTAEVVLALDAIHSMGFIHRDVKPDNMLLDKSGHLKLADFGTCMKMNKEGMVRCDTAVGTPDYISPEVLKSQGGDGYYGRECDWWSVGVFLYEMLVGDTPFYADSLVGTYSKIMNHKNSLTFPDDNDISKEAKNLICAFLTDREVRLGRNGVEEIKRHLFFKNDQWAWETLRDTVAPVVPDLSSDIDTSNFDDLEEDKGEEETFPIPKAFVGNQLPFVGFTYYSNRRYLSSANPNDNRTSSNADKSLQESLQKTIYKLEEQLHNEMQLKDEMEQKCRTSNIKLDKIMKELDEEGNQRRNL
Method in brief: (§1)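 Baculovirus-expressed kinase phosphorylated ULight-CREBtide for 90 min at room temperature before the reaction was stopped with 10 mM EDTA. Phospho-substrate was detected by TR-FRET with 1 nM Europium-anti-phospho-CREB (Ser133) antibody after 60 min at room temperature.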

[4] = molecular target: GST-tagged human ROCK2 catalytic domain 1-553 (Homo sapiens (Human), UniProt O75116); assay: Inhibition of Rho-associated protein kinase isoform 2 (LANCE Ultra ULight-CREBtide FRET kinase assay); format: biochemical; details: for IC50: 30 μM was the highest concentration analyzed; for Selectivity for ROCK2 over ROCK1 (IC50 ROCK1 / IC50 ROCK2): selectivity ROCK2 vs ROCK1
Chain of GST-tagged human ROCK2 catalytic domain 1-553 (O75116 1-553): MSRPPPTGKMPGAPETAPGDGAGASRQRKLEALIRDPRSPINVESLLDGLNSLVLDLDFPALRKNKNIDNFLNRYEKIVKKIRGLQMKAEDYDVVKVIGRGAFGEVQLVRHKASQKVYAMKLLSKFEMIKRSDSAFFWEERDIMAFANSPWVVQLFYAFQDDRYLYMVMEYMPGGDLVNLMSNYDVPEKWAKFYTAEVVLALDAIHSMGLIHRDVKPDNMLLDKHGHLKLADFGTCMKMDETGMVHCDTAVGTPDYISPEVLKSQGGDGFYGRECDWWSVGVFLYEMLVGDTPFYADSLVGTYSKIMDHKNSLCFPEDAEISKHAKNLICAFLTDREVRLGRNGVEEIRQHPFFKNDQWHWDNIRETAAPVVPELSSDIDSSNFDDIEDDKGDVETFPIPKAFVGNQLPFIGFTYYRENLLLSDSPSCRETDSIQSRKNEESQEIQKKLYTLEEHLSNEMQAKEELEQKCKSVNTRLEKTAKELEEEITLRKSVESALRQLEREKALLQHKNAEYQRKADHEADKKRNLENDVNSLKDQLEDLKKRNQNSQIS
Method in brief: as §1

Row | Structure (SMILES) | IC50 [3] [µM] | IC50 [4] [µM] | Selectivity for ROCK2 over ROCK1 (IC50 ROCK1 / IC50 ROCK2) [4] | coronary stenosis (ROCK [1]) | infarct size and neurologic deficit (ROCK [2])
1 | O=S(=O)(c1cccc2cnccc12)N1CCCNCC1 [fasudil] |  |  |  | progressively reduce coronary stenosis | reduce both the infarct size and neurologic deficit
2 | O=C(Nc1cccc(-c2nnc(Nc3ccc4[nH]ncc4c3)s2)c1)c1c[nH]cn1 [Example A-49] | > 30 | < 1 | >100 |  | 
3 | FC(F)(F)c1nc2c(-c3nnc(Nc4ccc5[nH]ncc5c4Cl)s3)cc(Br)cn2n1 [Example 50B] | 1 to 15 | < 1 | >100 |  | 

Further lines, with some results ahead:

Row | IC50 [3] [µM] | IC50 [4] [µM] | Selectivity for ROCK2 over ROCK1 (IC50 ROCK1 / IC50 ROCK2) [4] | Structure (SMILES) | coronary stenosis (ROCK [1]) | infarct size and neurologic deficit (ROCK [2])
4 | 1 to 15 | < 1 | >75 | O=C(O)C(F)(F)F.OCCn1ccnc1-c1cccc(-c2nnc(Nc3ccc4[nH]ncc4c3Cl)s2)c1 [Example 45A, 2-(2-(3-(5-((4-Chloro-1H-indazol-5-yl)amino)-1,3,4-thiadiazol-2-yl)phenyl)-1H-imidazol-1-yl)ethan-1-ol 2,2,2-trifluoroacetic Acid Solvate] |  | 
5 | < 1 | < 1 | >50 | Clc1c(Nc2nnc(-c3cccc(-c4nnn[nH]4)c3)s2)ccc2[nH]ncc12 [Example 41D] |  | 
